Test [1] concerns the target T1, 5-hydroxytryptamine receptor 4 (Rattus norvegicus, UniProt Q62758). The experiment in a line: Compound was tested for agonist activity at the 5-hydroxytryptamine 4 receptor in the rat tunica muscularis mucosae (TMM) assay. It counts as functional, tissue-based, Muscularis mucosa.
The target in test [2] is Serotonin 1 (5-HT1) receptor (Rattus norvegicus, UniProt P28564+P30940+P19327+P28565). Kind of test: Compound was evaluated for 5-hydroxytryptamine 1 receptor binding. It counts as protein assay.
For test [3], the target named is Serotonin 2 (5-HT2) receptor (Homo sapiens, UniProt P41595+P28223+P28335). The experiment in a line: Compound was evaluated for 5-hydroxytryptamine 2 receptor binding. It counts as protein assay.
The target of test [4] is T1, 5-hydroxytryptamine receptor 4. Kind of test: Tested for agonist activity at the 5-hydroxytryptamine 4 receptor in the rat tunica muscularis mucosae (TMM) assay of racemate mixture. It counts as functional.
For test [5], the target named is Serotonin 3 (5-HT3) receptor. The experiment in a line: Compound was evaluated for 5-hydroxytryptamine 3 receptor binding. It counts as protein-complex assay.
Test [6] addresses T2, Adrenergic receptor alpha-2 (Homo sapiens, UniProt P08913+P18825+P18089).
T2 sequence (P08913 whole entry): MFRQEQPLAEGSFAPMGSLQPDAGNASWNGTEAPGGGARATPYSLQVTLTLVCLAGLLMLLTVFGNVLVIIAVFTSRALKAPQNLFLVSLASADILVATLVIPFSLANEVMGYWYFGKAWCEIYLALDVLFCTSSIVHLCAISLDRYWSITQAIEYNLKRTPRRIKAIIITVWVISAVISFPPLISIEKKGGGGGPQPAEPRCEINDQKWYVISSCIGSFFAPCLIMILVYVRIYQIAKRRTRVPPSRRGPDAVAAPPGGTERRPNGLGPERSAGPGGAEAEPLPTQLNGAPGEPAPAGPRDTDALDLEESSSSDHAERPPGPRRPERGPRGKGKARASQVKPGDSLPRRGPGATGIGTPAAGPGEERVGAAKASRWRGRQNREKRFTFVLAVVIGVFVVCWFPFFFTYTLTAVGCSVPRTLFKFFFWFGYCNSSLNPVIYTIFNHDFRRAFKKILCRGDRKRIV
T2 sequence (P18825 whole entry): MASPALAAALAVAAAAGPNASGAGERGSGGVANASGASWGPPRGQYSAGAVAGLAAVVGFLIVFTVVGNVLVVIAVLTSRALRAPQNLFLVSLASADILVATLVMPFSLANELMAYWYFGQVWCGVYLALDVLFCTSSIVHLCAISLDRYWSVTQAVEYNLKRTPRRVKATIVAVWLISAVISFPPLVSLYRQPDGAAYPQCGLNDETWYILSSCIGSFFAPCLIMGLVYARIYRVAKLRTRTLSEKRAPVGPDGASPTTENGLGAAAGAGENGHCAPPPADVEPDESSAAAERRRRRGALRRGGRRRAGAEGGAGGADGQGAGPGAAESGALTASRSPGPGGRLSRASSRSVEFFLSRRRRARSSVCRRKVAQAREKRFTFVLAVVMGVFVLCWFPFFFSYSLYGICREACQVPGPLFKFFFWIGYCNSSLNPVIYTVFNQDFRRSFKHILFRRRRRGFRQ
T2 sequence (P18089 whole entry): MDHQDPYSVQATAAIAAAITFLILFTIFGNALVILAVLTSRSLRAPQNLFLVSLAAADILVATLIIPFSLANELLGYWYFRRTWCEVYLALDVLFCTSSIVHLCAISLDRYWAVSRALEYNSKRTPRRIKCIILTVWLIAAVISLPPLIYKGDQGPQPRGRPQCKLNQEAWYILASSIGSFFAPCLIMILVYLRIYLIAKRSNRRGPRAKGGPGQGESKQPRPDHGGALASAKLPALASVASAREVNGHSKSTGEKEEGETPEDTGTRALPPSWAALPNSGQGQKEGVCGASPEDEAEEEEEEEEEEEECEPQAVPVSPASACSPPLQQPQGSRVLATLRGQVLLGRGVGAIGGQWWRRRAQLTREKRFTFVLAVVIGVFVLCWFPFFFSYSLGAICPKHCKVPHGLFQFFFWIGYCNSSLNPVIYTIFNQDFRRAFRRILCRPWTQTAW
Kind of test: Compound was evaluated for alpha-2 adrenergic receptor binding. It counts as protein assay.

Test [7] has as its target T3, Adrenergic receptor alpha-1 (Homo sapiens, UniProt P35348+P25100+P35368).
T3 sequence (P35348 whole entry): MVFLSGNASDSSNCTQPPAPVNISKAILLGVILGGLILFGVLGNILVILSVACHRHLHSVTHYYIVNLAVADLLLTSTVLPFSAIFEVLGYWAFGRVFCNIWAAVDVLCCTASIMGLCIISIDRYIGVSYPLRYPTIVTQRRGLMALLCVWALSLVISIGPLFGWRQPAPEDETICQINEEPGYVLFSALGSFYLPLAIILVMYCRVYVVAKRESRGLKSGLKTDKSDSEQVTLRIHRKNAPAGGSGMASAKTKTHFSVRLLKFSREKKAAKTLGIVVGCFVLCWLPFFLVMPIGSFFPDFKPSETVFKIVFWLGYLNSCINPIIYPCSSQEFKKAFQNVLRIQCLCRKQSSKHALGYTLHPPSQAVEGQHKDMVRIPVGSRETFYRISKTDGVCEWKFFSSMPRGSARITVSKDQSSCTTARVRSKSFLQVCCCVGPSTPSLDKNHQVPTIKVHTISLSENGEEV
T3 sequence (P25100 whole entry): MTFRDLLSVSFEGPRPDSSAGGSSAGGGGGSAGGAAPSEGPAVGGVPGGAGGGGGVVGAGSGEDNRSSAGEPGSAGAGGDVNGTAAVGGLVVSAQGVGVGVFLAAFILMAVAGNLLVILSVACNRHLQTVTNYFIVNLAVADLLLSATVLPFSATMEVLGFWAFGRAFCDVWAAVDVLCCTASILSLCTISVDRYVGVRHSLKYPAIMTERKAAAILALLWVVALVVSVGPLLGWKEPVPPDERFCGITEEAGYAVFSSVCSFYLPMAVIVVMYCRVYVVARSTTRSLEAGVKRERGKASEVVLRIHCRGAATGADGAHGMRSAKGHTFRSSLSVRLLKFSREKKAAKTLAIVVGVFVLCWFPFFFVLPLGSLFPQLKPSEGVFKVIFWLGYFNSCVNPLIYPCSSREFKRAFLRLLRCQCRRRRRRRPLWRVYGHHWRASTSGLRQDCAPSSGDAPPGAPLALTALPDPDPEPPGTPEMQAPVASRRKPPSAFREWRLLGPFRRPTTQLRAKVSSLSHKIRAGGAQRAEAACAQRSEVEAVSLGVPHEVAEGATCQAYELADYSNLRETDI
T3 sequence (P35368 whole entry): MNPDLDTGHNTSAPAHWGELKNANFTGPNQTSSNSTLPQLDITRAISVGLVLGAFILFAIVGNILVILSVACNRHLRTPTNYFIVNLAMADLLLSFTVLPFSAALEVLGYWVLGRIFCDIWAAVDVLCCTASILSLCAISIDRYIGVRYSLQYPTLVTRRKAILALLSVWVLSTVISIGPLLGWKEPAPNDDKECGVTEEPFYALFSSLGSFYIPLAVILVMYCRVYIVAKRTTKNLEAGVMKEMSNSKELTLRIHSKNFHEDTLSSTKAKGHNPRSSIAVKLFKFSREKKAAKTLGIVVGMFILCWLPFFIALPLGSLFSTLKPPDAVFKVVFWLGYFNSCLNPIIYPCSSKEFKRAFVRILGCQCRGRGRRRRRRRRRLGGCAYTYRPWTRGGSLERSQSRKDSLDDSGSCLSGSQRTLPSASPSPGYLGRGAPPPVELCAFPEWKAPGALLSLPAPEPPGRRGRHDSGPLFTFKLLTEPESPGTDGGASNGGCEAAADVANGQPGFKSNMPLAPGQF
The experiment in a line: Compound was evaluated for alpha-1 adrenergic receptor binding. The test is classed as protein assay.

Test [8] deals with Adrenergic receptor beta (Homo sapiens, UniProt P08588+P07550+P13945). The experiment in a line: Compound was evaluated for Beta adrenergic receptor binding. The test is classed as protein assay.
In test [9] the target is D(1A) dopamine receptor (Homo sapiens, UniProt P21728). Kind of test: Compound was evaluated for Dopamine receptor D1 binding.
Sequence of D(1A) dopamine receptor (P21728 whole entry): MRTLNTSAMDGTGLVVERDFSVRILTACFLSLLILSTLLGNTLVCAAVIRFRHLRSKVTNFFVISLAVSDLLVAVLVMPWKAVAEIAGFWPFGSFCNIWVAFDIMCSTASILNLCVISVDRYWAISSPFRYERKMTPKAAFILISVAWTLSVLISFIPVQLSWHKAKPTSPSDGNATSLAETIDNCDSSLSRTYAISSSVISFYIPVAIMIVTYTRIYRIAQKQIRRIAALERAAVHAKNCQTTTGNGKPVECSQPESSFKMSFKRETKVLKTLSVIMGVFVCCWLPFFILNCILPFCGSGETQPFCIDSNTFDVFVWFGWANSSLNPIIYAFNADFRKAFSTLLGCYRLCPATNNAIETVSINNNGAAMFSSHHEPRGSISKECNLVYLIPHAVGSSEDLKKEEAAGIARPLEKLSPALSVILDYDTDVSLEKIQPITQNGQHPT
The target of test [10] is D(2) dopamine receptor (Homo sapiens, UniProt P14416). The experiment in a line: Compound was evaluated for Dopamine receptor D2 binding.
Sequence of D(2) dopamine receptor (P14416 whole entry): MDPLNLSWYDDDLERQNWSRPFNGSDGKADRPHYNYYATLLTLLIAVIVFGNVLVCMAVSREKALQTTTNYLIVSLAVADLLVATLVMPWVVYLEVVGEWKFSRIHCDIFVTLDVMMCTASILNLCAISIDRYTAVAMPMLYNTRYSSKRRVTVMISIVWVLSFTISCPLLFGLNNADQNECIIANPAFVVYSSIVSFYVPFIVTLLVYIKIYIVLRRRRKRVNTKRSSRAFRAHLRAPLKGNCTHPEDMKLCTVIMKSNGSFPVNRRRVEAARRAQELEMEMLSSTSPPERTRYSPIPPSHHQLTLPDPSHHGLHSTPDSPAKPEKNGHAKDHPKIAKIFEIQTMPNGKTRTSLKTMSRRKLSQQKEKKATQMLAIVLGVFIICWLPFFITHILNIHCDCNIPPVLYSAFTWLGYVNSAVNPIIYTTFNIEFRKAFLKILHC
Test [11] deals with T1, 5-hydroxytryptamine receptor 4. The experiment in a line: Compound was tested for agonist activity at the 5-hydroxytryptamine 4 receptor in the rat tunica muscularis mucosae (TMM) assay; IN = Inactive. The test is classed as functional, tissue-based, Muscularis mucosa.

The source of these data is ChEMBL document CHEMBL1146779, “Bridgehead-methyl analog of SC-53116 as a 5-HT4 agonist” (Bioorg Med Chem Lett, 2004).

As a reminder, the EC50 is the concentration needed to bring the measured effect to its halfway point. For orientation: Ki means a measure of affinity in units of concentration, obtained from inhibition or displacement. A high value points to lower affinity.

T1 sequence (Q62758 whole entry): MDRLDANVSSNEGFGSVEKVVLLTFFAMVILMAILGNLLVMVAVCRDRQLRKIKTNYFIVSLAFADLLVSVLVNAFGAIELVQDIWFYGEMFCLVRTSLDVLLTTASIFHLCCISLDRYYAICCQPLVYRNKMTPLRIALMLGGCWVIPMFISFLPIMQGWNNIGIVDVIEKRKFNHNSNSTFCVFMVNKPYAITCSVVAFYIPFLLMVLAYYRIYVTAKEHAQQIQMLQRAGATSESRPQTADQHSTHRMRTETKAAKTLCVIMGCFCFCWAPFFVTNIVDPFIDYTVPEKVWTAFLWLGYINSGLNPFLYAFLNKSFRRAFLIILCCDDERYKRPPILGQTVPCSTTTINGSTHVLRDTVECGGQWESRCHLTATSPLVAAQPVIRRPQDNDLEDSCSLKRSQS

For the compound `COc1cc(N)c(Cl)cc1C(=O)NC[C@@H]1CCN2CCC[C@@]12C` (racemic), a half-maximal effect in [1] (EC50) was put at 449 nM.
`COc1cc(N)c(Cl)cc1C(=O)NC[C@@H]1CCN2CCC[C@@H]12`: the Ki in test [2] was more than 10000 nM; in [3], more than 10000 nM; in test [5], 152 nM; in test [6] it was more than 10000 nM; in test [7], more than 10000 nM; in [8] it was more than 10000 nM. Besides, the Ki in test [9] and in test [10] was more than 10000 nM each time. Besides, the figures for the EC50 in test [1] and in test [4] were 23 nM and 66 nM, respectively.
As to `COc1cc(N)c(Cl)cc1C(=O)N[C@@H]1C2CC3CN(C2)CC31` (some centres not stated), in test [11], the EC50 entry is recorded as “Not Active”.
